# Test results: patent publication US9115092B2, “Substituted quinazoline and pyrido-pyrimidine derivatives” (Asana Biosciences, LLC, priority 2010, dated 2015)
# pIC50: −log10 of the molar value.
# Tests used:
# [1] = system: pAKT(5473) (phosphorylated at serine 473), PC3 cells; assay: In-cell Western assay, pAKT(5473) in PC3 cells; format: cell-based; settings: Homo sapiens, PC-3, In-cell Western, read-out: pAkt-S473
# Summary of the method: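 Overnight-seeded PC3 cells were treated 2 h with serially diluted compound, then fixed and immunostained with phospho-specific primary antibodies and Eu-labelled secondary. Time-resolved Eu signal read at 615 nm (ex 340 nm), normalised by Hoechst 33258 staining (ex 355/em 460 nm); IC50 from sigmoidal dose-response fit.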
# [2] = system: pAKT(T308) (phosphorylated at threonine 308), PC3 cells; assay: In-cell Western assay, pAKT(T308) in PC3 cells; format: cell-based; settings: Homo sapiens, PC-3, In-cell Western
# Method: Cells from human prostate cancer cell line PC3 (American Type Culture Collection (ATCC), Manassas, Va. 20108 USA) were seeded at an optimal density of 22,000 cell/well in 96-well plates containing Ham's F12K medium (90 μL) and incubated overnight. The compound dilutions were carried out in 100% DMSO followed by a dilution in the medium. Test compounds were added in serial dilutions to the wells and incubated for 2 h. The cells were washed and fixed with 4% paraformaldehyde. After incubation at room temperature for 1 h in the dark, blocking was done for 2 h at room temperature. Primary antibodies for phosphorylated (p) AKT(5473) (phosphorylated at serine 473), pAKT(T308) (phosphorylated at threonine 308) and for pS6RP(S235/236) (phosphorylated at serine 235/236) (commercially available from Cell Signaling Technology®, whose protocol was followed for the in-cell western assay, were diluted to the required concentration and added to the corresponding wells followed by overnight incubation at 4° C. Eu-labeled rabbit (PE) (Perkin-Elmer USA catalog #AD0106) secondary antibody was added and incubated for 2 h at room temperature. Delfia® enhancement solution (cat #1244-105, Perkin Elmer USA) was subsequently added to the plate before taking the reading at 615 nm with excitation wavelength of 340 nm, after which 0.5 μg/mL of Hoechst® 33258 dye (Catalog #86140-5, Sigma) was added to the plate and fluorescence emission was read at 460 nm with 355 nm excitation, to evaluate the correction factor. IC50 values were calculated using a sigmoidal dose-response curve fit in GraphPad Prism® v5 software.
# PI3 kinase isoform β = PI3 kinase isoform β (Homo sapiens, UniProt P42338); assay: PI3 Kinase TR-FRET assay, isoform β; format: biochemical; settings: read-out: inhibition of PI3 kinase isoform β, IC50
# PI3 kinase isoform β, sequence (P42338 whole entry, the tested form may be a part, canonical isoform): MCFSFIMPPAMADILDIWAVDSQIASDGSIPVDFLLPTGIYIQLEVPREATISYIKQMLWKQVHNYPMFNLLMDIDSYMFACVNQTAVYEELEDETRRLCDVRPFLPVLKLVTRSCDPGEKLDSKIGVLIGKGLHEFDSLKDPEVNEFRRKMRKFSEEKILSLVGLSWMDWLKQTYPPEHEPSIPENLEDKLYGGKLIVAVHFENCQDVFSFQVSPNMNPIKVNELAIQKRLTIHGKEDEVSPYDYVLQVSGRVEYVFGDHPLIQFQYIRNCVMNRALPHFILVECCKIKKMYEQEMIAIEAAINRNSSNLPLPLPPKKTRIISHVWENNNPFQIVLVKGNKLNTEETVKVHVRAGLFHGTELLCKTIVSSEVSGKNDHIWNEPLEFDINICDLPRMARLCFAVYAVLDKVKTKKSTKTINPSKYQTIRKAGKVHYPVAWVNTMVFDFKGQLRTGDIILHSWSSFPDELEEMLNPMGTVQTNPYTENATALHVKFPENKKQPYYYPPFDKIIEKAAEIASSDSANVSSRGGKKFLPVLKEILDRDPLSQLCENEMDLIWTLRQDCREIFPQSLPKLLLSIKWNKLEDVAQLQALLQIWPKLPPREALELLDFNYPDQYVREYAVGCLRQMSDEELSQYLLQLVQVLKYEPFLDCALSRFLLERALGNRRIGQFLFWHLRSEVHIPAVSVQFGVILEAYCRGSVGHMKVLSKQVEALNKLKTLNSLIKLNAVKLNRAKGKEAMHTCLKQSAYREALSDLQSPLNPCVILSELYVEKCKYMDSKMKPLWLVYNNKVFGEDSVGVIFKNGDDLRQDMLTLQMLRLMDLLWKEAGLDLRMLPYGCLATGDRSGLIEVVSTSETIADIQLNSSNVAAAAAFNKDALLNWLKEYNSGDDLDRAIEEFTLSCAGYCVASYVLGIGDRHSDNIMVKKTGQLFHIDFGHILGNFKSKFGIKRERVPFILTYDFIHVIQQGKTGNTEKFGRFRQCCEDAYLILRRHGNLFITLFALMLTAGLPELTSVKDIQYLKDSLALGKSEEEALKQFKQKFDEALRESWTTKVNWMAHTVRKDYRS
# PI3 kinase isoform β, sequence (P27986 whole entry partner, the tested form may be a part, canonical isoform): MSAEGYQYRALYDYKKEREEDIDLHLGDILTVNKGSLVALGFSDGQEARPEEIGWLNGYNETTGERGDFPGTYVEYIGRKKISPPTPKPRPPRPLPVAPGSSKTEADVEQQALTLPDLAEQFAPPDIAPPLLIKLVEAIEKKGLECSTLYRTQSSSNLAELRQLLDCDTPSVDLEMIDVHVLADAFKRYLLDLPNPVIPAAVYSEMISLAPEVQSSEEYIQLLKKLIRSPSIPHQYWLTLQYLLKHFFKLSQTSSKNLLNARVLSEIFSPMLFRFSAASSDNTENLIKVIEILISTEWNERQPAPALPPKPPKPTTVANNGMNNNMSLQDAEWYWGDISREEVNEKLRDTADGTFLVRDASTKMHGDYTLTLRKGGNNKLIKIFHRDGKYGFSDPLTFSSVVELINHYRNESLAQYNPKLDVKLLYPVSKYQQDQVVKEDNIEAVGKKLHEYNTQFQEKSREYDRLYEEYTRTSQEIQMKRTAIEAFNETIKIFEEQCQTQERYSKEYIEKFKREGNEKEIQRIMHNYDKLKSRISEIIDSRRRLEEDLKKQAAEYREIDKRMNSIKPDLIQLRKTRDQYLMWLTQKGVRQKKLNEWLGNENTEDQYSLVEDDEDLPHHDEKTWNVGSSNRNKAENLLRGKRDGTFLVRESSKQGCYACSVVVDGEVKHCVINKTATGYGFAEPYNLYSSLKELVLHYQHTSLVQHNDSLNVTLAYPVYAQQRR
# Method: (§1) The ability of compounds of the invention to inhibit PI3K activity was determined in a homogeneous TR-FRET assay using a PI3K assay kit (Millipore, USA; cat #33-016) according to manufacturer's instructions. PI3-Kinases (isoforms α, β, γ and δ) catalyze the phosphorylation of phosphatidylinositol, PIP2 to PIP3 in the presence of ATP and Mg^2+. The PIP3 product is detected by displacement of biotin-PIP3 from an energy transfer complex consisting of Europium labeled anti-GST monoclonal antibody, a GST-tagged PH domain, biotinylated PIP3 and Streptavidin-APC. Excitation of Europium in the complex results in an energy transfer to the APC and a fluorescence emission at 665 nm. The PIP3 product displaces biotin-PIP3 from the complex resulting in a loss of energy transfer and thus a decrease in signal.
# (§2) To test for the ability of compounds to inhibit the activity of PI3Kα (wild-type), exemplary compounds of formula (I) were dissolved in DMSO and directly distributed into 384-well plates at a volume of 0.5 μL. 14.5 μL of P110/P85α/PIP2 mixture in buffer (obtained from the Millipore kit) containing MgCl2 (40 mM) and DTT (5 mM) was added to compound wells and incubated for 60 min at room temperature. P110/P85α was expressed in SF9 insect cells and purified nickel column extraction. Five ng of wild-type P110/P85α was used in the assay. The kinase reaction was started by the addition of ATP. The assay concentrations of both PIP2 and ATP were 10 μM. The reaction mixture was incubated for 30 min at room temperature and was terminated by the addition of stop mix and detection mix. Fluorescence was measured at 615 and 665 nm upon excitation at 340 nm in a Victor™ V5 fluorometer (Perkin Elmer, USA). The fluorescence emission ratio at 665 to 615 nm, proportional to the kinase activity, was plotted against the compound concentration to generate dose-response curves and IC50 values were determined using GraphPad Prism® 5 software.
# The activity of PI3 kinase isoforms β, γ and δ were assayed in a similar manner to the assay protocol described above for PI3Kα, by substituting the appropriate p110/p85 isoform for the p110α/p85α. Compounds of formula (I) caused inhibition of PI3 kinase isoforms β, γ and δ as determined by these assays. For example, the compounds of examples 3, 51, 54, 111, 113, 115, and 253 each caused inhibition of PI3 kinase isoform β with IC50 values <50 nM. The compounds of examples 104, 133, 146 and 152 each caused inhibition of PI3 kinase isoform β with IC50 values <500 nM. The compounds of examples 3, 51, 54, 104, 111, 113, 115, 133, 253, and 152 each caused inhibition of PI3 kinase isoform γ with IC50 values <500 nM. […] The compounds of examples 2, 3, 51, 54, 111, 113, and 253 each caused inhibition of PI3 kinase isoform […] with IC50 values >1 μM.
# PI3Kα mutation H1047R = PI3Kα mutation H1047R (Homo sapiens, UniProt P42336, H1047R); assay: PI3 Kinase TR-FRET assay, PI3Kα mutation H1047R; format: biochemical; settings: read-out: inhibition of PI3Kα mutation H1047R, IC50
# PI3Kα mutation H1047R, sequence (P42336 whole entry H1047R): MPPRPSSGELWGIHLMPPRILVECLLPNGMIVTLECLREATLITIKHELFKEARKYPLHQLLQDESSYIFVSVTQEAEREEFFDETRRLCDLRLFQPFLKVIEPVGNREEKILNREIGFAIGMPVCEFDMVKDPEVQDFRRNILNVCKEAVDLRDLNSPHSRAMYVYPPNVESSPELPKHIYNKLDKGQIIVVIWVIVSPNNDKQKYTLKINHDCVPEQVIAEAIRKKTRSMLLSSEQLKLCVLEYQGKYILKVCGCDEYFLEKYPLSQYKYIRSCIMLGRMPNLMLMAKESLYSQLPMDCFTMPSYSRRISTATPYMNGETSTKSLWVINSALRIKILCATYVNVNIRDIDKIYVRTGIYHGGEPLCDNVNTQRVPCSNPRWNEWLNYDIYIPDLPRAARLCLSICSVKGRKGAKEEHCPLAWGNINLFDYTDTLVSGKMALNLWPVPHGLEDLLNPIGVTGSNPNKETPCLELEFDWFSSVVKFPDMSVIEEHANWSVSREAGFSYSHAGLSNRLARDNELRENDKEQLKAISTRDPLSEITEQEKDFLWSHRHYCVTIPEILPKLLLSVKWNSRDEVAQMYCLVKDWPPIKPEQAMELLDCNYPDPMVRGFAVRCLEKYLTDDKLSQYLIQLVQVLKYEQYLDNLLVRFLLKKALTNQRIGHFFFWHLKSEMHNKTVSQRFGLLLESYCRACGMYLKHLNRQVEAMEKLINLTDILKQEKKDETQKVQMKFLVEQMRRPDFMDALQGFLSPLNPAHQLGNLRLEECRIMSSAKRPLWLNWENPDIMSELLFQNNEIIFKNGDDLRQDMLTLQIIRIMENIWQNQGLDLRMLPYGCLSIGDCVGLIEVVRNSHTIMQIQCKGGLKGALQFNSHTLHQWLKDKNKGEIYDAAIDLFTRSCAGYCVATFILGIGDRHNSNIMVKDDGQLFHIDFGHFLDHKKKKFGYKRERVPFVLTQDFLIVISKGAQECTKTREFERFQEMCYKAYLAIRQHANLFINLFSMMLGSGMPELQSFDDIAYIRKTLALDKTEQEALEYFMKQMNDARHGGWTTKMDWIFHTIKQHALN
# PI3Kα mutation H1047R, sequence (P27986 whole entry partner): as the sequence (P27986 whole entry partner, the tested form may be a part, canonical isoform) above
# Method: as §1, §2
# (§3) The activity of PI3Kα mutations H1047R and E545K were assayed in a similar manner to the assay protocol described above for PI3Kα (wild type). […]
# PI3Kα mutation E545K = PI3Kα mutation E545K (Homo sapiens, UniProt P42336, E545K); assay: PI3 Kinase TR-FRET assay, PI3Kα mutation E545K; format: biochemical; settings: read-out: inhibition of PI3Kα mutation E545K, IC50
# PI3Kα mutation E545K, sequence (P42336 whole entry E545K): as the sequence (P42336 whole entry H1047R) above, with E545K, R1047H counted along it
# PI3Kα mutation E545K, sequence (P27986 whole entry partner): as the sequence (P27986 whole entry partner, the tested form may be a part, canonical isoform) above
# Method: as §1, §2, §3
SMILES,pIC50 [1],pIC50 [2],pIC50 (PI3 kinase isoform β),pIC50 (PI3Kα mutation H1047R),pIC50 (PI3Kα mutation E545K)
"CN(C)C(=O)c1ccc(NC(=O)Nc2ccc(-c3nc(N4CCOCC4)c4ccc(-c5cncnc5)cc4n3)cc2)cc1 [Example 1, N,N-Dimethyl-4-(3-{4-[4-morpholin-4-yl-7-pyrimidin-5-yl-quinazolin-2-yl)-phenyl]-ureido}-benzamide]",6.30 to 7.00,5.30 to 6.30,,,
"CN(C)C(=O)c1ccc(NC(=O)Nc2ccc(-c3nc(N4CCOCC4)c4ccc(-c5cncnc5)cc4n3)cc2)c(F)c1 [Example 133, 3-fluoro-N,N-dimethyl-4-(3-(4-(4-morpholino-7-(pyrimidin-5-yl)quinazolin-2-yl)phenyl)ureido)-benzamide]",5.30 to 6.30,> 7.00,> 6.30,> 6.30,> 6.30
"CN(C)C(=O)c1ccc(NC(=O)Nc2ccc(-c3nc(N4CCOCC4)c4ccc(-c5cccnc5)cc4n3)cc2)c(F)c1 [Example 152, 3-fluoro-N,N-dimethyl-4-(3-(4-(4-morpholino-7-(pyridin-3-yl)quinazolin-2-yl)phenyl)ureido)-benzamide]",5.30 to 6.30,> 7.00,> 6.30,> 6.30,> 6.30

# Other lines, results leading:
pIC50 [1],pIC50 [2],pIC50 (PI3 kinase isoform β),pIC50 (PI3Kα mutation H1047R),pIC50 (PI3Kα mutation E545K),SMILES
6.30 to 7.00,6.30 to 7.00,> 6.00,,,"Cc1ccc(-c2ccc3c(N4CCOCC4)nc(-c4ccc(NC(=O)Nc5ccc(C(=O)N(C)C)cc5)cc4)nc3c2)o1 [Example 2, N,N-Dimethyl-4-(3-{4-[7-(5-methyl-furan-2-yl)-4-morpholin-4-yl-quinazolin-2-yl]-phenyl}-ureido)-benzamide]"
> 7.00,> 7.00,> 6.30,> 6.30,> 6.30,"CN(C)C(=O)c1ccc(NC(=O)Nc2ccc(-c3nc(N4CCOCC4)c4ccc(-c5cccnc5F)cc4n3)cc2)c(F)c1 [Example 146, 3-fluoro-4-(3-(4-(7-(2-fluoropyridin-3-yl)-4-morpholino-quinazolin-2-yl)phenyl)ureido)-N,N-dimethyl-benzamide]"
